# Assay results as given in patent US20080262079A1, “Cannabinoid Compositions and Methods of Use Thereof” (priority 2004, published 2008).
# Legend:
# [1] = system: Th1 (IFN-γ, IL-12) and Th2 (IL-4, IL-10) cytokines, TGF-β; experiment: Cytokine analysis by ELISA in culture supernatants of conA-stimulated lymphoid cells from THC-treated mice; assay type: cell-based, mouse
# splenocytes = experiment: Proliferation assay (MTS) of conA-stimulated splenocytes isolated from THC-treated mice; assay type: cell-based, mouse; details: cells from THC-treated vs untreated apoE−/− mice, conA 72 hours
# Experimental: Proliferation Assay: Splenocytes (SC) or lymph node cells (LNC) were isolated from THC- or milk-treated mice and cultured in 96-well plates at a concentration of 5×10^6 cells/ml. Culture medium consisted of RPMI 1640 supplemented with 25 mM HEPES buffer, 2 mM L-glutamine, 100 U/ml penicillin, 0.1 mg/ml streptomycin, and 10% heat-inactivated fetal bovine serum (FBS). Cells were stimulated in triplicates with varying concentrations of concanavalin (con A; Sigma). After 72 hours, cell proliferation was determined using a non-radioactive MTS cell proliferation assay (Promega) according to the manufacturer's guidelines.
# [2] = system: apolipoprotein E−/− (apoE−/−) mouse model of atherosclerosis; experiment: Atherosclerotic lesion size quantification in apoE−/− mice on high cholesterol diet (Sudan IV staining); assay type: in vivo; details: 11 weeks high cholesterol diet, THC 1 mg/kg daily orally during last 6 weeks, vs control mice
# Experimental: (§1) Reagents: Synthetic delta-9-THC Marinol® (Dronanbinol, Unimed Pharmaceuticals, Inc.; Marietta Ga., USA) was dissolved at 0.1 mg/ml in 5.5.% fat milk (w/v) in water. THC (1 mg/kg per day) in 1.5% fat milk (w/v) was administered orally within drinking water. Delta-9-THC for in vitro experiments was purchased as a stock solution of 1 mg/ml in methanol (Cambridge Isotype Laboratories, Andover Mass., USA) and were further diluted in warm medium immediately before use. For in vitro transmigration assays, all experiments were performed by adding corresponding dilutions of the THC vehicle (methanol) to the non-THC-treated controls.
# Atherosclerotic lesion size quantification: Atherosclerotic lesions within the thoraco-abdominal aorta and aortic roots were analyzed by Sudan IV staining for lipid deposition. Quantification was performed by computer image analysis using the MetaMorph6 software (Zeiss, Feldbach, Switzerland) as previously described. (Kwak et al., Circulation 107, 1033-9 (2003)).
# [3] = system: thioglycollate-elicited peritoneal macrophages from apoE−/− mice; experiment: Transmigration assay: chemo-attraction of peritoneal macrophages to MCP-1; assay type: cell-based, mouse; details: THC 0.6 ng/ml, 4 hours with 1 ng/ml mIFN-γ, 1 nM MCP-1, 90 minutes
# Excerpt: Early processes of atherosclerosis involve endothelial dysfunction in response to cardiovascular risk factors, which triggers the recruitment of leukocytes (monocytes/macrophages and T lymphocytes) into the vessel wall. The studies described herein address whether treatment with THC inhibited cell migration using a functional in vitro experiment. Thioglycollate-stimulated peritoneal mouse macrophages were isolated from apoE^−/− mice and assayed for their migration capacity by chemo-attraction to MCP-1.
# as §1, with “For in vitro transmigration assays, all experiments were performed by adding corresponding dilutions of the THC vehicle (methanol) to the non-THC-treated controls.” left out
# Transmigration assay: Macrophages from the peritoneal cavity of thioglycollate-injected apoE^−/− mice were isolated 4 days post-injection and stimulated (in triplicates) for 4 hours with 1 ng/ml mIFN-γ in the presence or absence of 0.6 ng/ml THC (n=4 mice). […] Following 90 minutes of incubation, the number of migrated cells was determined by counting (blind observers) 10 microscopic fields per well.
# [4] = THC levels in blood serum of THC-treated mice (gas chromatography/mass spectrometry); assay type: in vivo, mouse; details: apoE−/− mice, THC 1 mg/kg per day orally
# Experimental: as §1
# [5] = Blood analysis (cholesterol, triglyceride), body weight and tolerability in THC-treated apoE−/− mice
# Experimental: The anti-atherosclerotic potential of THC was tested in the apolipoprotein E^−/− (apoE^−/−) mouse model of atherosclerosis. The studies presented herein utilized delta-9-Tetrahydrocannoabinol (THC), the major component of marijuana, as its immune-modulating effects have been well-documented in several studies. (See e.g., Srivastava, Immuopharmacology 40, 179-85 (1998); Zhu, J Immunol 165, 373-80 (2000); Yuan J Neuroimmunol 133, 124-31 (2002); Lyman, J Neuroimmunol 23, 73-81 (1989); Malfait, Proc Natl Acad Sci USA 97, 9561-6 (2000)). In addition, this compound is already commercially available, for example as an anti-vomiting drug or for use in treating anorexia. Since potential novel anti-inflammatory therapies should be well tolerated and preferably devoid of psychotropic effects, a low dosage of THC (e.g., 1 mg/kg) was used for daily oral administration. […] (Chesher, et al., Pharmacol Biochem Behav 35:861-4 (1990); Brenneisen, et al., Int J Clin Pharmacol Ther 34, 446-52 (1996); Chan, et al., Fundam Appl Toxicol 30, 109-17 (1996)) To test the therapeutic effect of THC on established atherosclerosis, apoE^−/− mice were fed with a high cholesterol diet for 5 weeks, and THC was then administered during the following 6 weeks, while maintaining the cholesterol diet.
# Animals: As a model of in vivo atherosclerosis, 10-week old male apolipoprotein E^−/− mice (apoE^−/−) C57BL/6 mice were used. For histological and atherosclerotic plaque development analysis, mice were fed with a high cholesterol diet (1.25% cholesterol, 0% cholate; Research Diets, New Brunswick N.J., USA) for 5 weeks or for 11 weeks (n=6 per group). THC was administered during the last 6 weeks of the 11 week diet group. In parallel, control mice (littermates) received milk without THC (n =8). For proliferation and cytokine analysis, littermate apoE^−/− mice were divided into 2 groups (control, THC; n=6 per group) and fed with a high cholesterol diet for 4 weeks. THC or milk only was administered during the last 2 weeks of diet. All animal studies were approved by the local Ethical Committee.
# Blood Analysis: For measurements of cholesterol and triglyceride content, blood samples were collected at the beginning and the end of the diet. HDL and VLDL cholesterol fractions of sera were measured by fast protein lipid chromatography. THC levels in blood (after 2, 4 and 6 weeks of treatment) were measured by gas chromatography/mass spectrometry with a limit of detection of […] as previously described. (Giroud, et al. Forensic Sci Int 123, 159-64 (2001)).
# [6] = system: murine collagen-induced arthritis, a mouse model of rheumatoid arthritis; details: cited from earlier work
# [7] = THC-treated vs untreated mice, conA 2 μg/ml, supernatant 48 hours, ELISA
# [8] = THC 1 mg/kg per day orally, apoE−/− mice
# [9] = THC-treated vs control apoE−/− mice
Compound,"IL-4 expression ([1]; THC-treated mice, conA-stimulated cells, ELISA)","IL-12 expression ([1]; THC-treated mice, conA-stimulated cells, supernatant 48 hours, ELISA)",Th1/Th2 balance (ratio of IFN-γ to IL-10 concentration) ([1]; THC-treated vs untreated mice),"IFN-γ production [1, 7]","TGF-β production [1, 7]","IL-10 production ([1]; THC-treated vs untreated mice, conA 2 μg/ml, supernatant 72 hours, ELISA)",proliferative responses of in vitro stimulated splenocytes (splenocytes),progression of atherosclerotic lesions within the aortic roots [2],migration of macrophages [3],THC concentration in blood serum [4],"deaths during treatment [5, 8]","unhealthy behavior [5, 8]","body weights [5, 9]","serum cholesterol levels [5, 9]","serum triglyceride levels [5, 9]",proliferation and IFN-γ production of lymph node cells from treated mice (Th1 responses) ([6]; collagen-induced arthritis mice),chronic inflammation in collagen-induced arthritis ([6]; mouse model of rheumatoid arthritis)
"CCCCCc1cc(O)c2c(c1)OC(C)(C)C1CCC(C)=CC21 (centres unmarked) [THC, delta-9-tetrahydrocannabinol]",neither expression of IL-4 nor IL-12 was detectable,neither expression of IL-4 nor IL-12 was detectable,shift of the Th1/Th2 balance,significantly less,"modest, but not significant, downregulation","modest, but not significant, downregulation",significantly reduced,significantly reduced progression of atherosclerotic lesions,significantly inhibited,0.6 ng/mL,None of the THC-treated mice died during treatment,none showed unhealthy behavior,No differences,No differences,No differences,–,–
C=C(C)[C@@H]1CCC(C)=C[C@H]1c1c(O)cc(CCCCC)cc1O [cannabidiol],–,–,–,–,–,–,–,–,–,–,–,–,–,–,–,reduced,ameliorated chronic inflammation
